Experiment [1] concerns the target PI3Kγ (p110γ) Recombinant Human Protein (Homo sapiens (Human), UniProt P48736). The experiment in a line: PI3K-γ scintillation proximity assay. Format: biochemical. The source says: Example B. PI3K-γ Scintillation Proximity Assay
Materials: [γ-^33P]ATP (10 mCi/mL) and Wheat Germ Agglutinin (WGA) YSi SPA Scintillation Beads was purchased from Perkin Elmer (Waltham, MA). Lipid kinase substrate, D-myo-Phosphatidylinositol 4,5-bisphosphate (PtdIns(4,5)P2)D (+)-sn-1,2-di-O-octanoylglyceryl, 3-O-phospho linked (PIP2), CAS 204858-53-7, was purchased from Echelon Biosciences (Salt Lake City, UT). PI3Kγ (p110γ) Recombinant Human Protein was purchased from Life technology (Grand Island, NY). ATP, MgCl2, DTT, EDTA, MOPS and CHAPS were purchased from Sigma Aldrich (St. Louis, MO).
(§1) The kinase reaction was conducted in polystyrene 384-well Greiner Bio-one white plate from Thermo Fisher Scientific in a final volume of 25 L. Inhibitors were first diluted serially in DMSO and added to the plate wells before the addition of other reaction components. The final concentration of DMSO in the assay was 2%. The PI3Kγ assay was carried out at room temperature in 20 mM MOPS, pH 6.7, 10 mM MgCl2, 5 mM DTT and CHAPS 0.03%. Reactions were initiated by the addition of ATP, the final reaction mixture consisted of 20 µM […], 0.5 μCi [γ-^33P]ATP, 13 nM PI3Kγ. Reactions were incubated for 120 min and terminated by the addition of 40 μL SPA beads suspended in quench buffer: 163 mM potassium phosphate pH 7.8, 20% glycerol, 25 mM EDTA. The final concentration of SPA beads is 1.0 mg/mL. After the plate sealing, plates were shaken overnight at room temperature and centrifuged at 1500 rpm for 10 min, the radioactivity of the product was determined by scintillation counting on Topcount (Perkin-Elmer). IC50 determination was performed by fitting the curve of percent of the solvent control activity versus the log of the inhibitor concentration using the GraphPad Prism 6.0 software.
(§2) The compounds of the Examples were tested in the assays described in Examples A, B and C and found to have the IC50s are shown in Tables A1, A2, A3 and A4.
On the technique in general: Scintillation proximity formats need no separation of bound from free tracer.

Experiment [2] has as its target PI3Kδ (p1106/p85a) Recombinant Human Protein (Homo sapiens (Human), UniProt O00329). The experiment in a line: PI3Kδ scintillation proximity assay. Format: biochemical.
Excerpt: Example C. PI3Kδ Scintillation Proximity Assay
Materials: [γ-^33P]ATP (10 mCi/mL) and Wheat Germ Agglutinin (WGA) YSi SPA Scintillation Beads was purchased from Perkin Elmer (Waltham, MA). Lipid kinase substrate, D-myo-Phosphatidylinositol 4,5-bisphosphate (PtdIns(4,5)P2)D (+)-sn-1,2-di-O-octanoylglyceryl, 3-O-phospho linked (PIP2), CAS 204858-53-7, was purchased from Echelon Biosciences (Salt Lake City, UT). PI3Kδ (p1106/p85a) Recombinant Human Protein was purchased from Eurofins (St Charles, MO). ATP, MgCl2, DTT, EDTA, MOPS and CHAPS were purchased from Sigma Aldrich (St. Louis, MO).
as §1, with “25 μL.” for “25 L.”, “The PI3Kδ” for “The PI3Kγ”, “[γ-^33P]ATP, 3.4” for “[γ-^33P]ATP, 13”, “nM PI3Kδ.” for “nM PI3Kγ.”, “Topcount (PerkinElmer).” for “Topcount (Perkin-Elmer).”
as §2

The mark [3] stands for this setting: Table A1, scintillation proximity assay, recombinant human p110γ.
[4] abbreviates: Table A1, scintillation proximity assay, recombinant human PI3Kδ.
Setting [5] is: Table A4, scintillation proximity assay, recombinant human p110γ.
The mark [6] stands for this setting: Table A4, scintillation proximity assay, recombinant human PI3Kδ.
Where [7] appears, read: Table A2, scintillation proximity assay, recombinant human p110γ.
Setting [8] is: Table A2, scintillation proximity assay, recombinant human PI3Kδ.

SMILES strings stand for the structures. Counter-ions that a name gives are not always drawn. Like-named read-outs stand apart in the source and are kept apart here. Where only a bound is given, the exact number is not on record here.

Chain of PI3Kδ (p1106/p85a) Recombinant Human Protein (O00329 whole entry): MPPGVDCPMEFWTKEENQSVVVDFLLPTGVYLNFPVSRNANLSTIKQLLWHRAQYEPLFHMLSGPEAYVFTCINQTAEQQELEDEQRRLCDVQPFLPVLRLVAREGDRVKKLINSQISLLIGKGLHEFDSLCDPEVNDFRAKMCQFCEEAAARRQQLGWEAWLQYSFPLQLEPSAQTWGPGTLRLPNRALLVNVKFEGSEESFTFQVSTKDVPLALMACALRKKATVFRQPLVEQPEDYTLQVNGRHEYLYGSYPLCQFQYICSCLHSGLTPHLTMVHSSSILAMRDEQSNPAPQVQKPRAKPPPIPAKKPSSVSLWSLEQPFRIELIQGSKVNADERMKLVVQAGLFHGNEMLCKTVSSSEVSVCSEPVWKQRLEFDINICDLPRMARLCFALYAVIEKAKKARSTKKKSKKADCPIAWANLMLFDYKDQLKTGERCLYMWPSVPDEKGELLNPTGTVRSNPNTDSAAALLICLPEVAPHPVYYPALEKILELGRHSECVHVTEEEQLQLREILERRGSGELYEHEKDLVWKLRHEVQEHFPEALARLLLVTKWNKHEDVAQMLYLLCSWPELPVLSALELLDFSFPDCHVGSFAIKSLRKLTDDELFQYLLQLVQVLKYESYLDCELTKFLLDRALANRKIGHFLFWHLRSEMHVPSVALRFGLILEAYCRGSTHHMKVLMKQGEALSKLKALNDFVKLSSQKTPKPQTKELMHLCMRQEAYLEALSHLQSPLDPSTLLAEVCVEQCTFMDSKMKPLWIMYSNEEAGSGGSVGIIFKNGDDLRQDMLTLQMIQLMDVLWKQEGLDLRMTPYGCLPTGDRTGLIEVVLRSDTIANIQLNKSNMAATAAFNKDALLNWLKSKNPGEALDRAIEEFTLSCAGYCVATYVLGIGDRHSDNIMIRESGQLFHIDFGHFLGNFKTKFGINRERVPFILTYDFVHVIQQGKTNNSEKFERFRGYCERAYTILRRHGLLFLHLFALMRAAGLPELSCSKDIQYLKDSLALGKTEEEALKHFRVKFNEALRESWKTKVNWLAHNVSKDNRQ
Chain of PI3Kδ (p1106/p85a) Recombinant Human Protein (P27986 whole entry partner): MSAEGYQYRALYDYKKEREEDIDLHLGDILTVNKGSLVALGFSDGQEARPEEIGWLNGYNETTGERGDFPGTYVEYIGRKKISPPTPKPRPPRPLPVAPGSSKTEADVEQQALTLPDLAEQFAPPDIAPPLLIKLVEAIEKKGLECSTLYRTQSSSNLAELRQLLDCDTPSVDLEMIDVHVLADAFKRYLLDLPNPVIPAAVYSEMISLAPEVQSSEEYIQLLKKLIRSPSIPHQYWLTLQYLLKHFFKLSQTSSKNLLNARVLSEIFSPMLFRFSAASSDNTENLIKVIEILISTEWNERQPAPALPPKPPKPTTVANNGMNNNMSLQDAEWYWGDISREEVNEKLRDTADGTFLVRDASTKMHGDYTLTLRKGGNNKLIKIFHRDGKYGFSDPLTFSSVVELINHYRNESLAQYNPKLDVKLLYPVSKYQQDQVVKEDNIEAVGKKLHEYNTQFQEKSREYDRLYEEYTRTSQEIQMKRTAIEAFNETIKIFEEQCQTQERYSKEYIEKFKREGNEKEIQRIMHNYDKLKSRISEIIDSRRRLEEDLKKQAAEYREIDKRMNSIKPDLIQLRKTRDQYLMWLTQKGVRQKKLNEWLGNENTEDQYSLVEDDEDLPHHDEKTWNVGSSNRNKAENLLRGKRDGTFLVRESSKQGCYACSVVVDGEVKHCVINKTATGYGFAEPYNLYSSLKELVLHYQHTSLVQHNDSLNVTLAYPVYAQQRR
Chain of PI3Kγ (p110γ) Recombinant Human Protein (P48736 whole entry): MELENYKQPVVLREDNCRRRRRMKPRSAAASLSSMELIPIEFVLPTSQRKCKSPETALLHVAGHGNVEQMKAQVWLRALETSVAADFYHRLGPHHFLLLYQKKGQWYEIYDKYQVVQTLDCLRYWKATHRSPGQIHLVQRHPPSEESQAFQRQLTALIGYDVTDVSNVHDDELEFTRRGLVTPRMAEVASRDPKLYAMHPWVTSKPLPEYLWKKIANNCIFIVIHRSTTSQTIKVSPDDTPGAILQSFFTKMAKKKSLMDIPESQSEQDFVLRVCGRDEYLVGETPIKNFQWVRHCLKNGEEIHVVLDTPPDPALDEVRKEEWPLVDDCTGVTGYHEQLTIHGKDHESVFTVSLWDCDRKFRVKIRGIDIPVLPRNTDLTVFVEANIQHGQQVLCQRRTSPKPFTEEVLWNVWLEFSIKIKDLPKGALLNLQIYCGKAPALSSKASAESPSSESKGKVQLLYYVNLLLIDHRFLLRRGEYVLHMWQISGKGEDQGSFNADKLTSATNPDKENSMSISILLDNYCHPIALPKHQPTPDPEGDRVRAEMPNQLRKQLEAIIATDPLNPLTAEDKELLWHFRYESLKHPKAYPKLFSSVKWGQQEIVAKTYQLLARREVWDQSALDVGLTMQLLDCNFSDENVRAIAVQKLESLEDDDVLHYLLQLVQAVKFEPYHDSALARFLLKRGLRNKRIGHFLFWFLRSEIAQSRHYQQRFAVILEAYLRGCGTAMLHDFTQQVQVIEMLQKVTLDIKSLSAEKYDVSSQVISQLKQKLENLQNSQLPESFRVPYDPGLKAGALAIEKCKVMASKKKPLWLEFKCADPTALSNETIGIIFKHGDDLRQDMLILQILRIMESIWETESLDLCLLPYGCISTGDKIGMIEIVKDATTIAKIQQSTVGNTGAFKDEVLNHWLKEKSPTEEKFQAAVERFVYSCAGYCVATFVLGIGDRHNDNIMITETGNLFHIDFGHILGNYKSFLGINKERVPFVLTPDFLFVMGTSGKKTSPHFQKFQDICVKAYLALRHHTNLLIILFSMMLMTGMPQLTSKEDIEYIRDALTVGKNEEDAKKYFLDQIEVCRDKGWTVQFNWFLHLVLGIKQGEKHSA

Take `Cc1ccc(C(O)(C(N)=O)C(F)F)cc1-c1cnc(N)c(C(=O)NC(C)(C)CO)n1` (stereo not drawn) [Example 35, 3-amino-6-(5-(1-amino-3,3-difluoro-2-hydroxy-1-oxopropan-2-yl)-2-methylphenyl)-N-(1-hydroxy-2-methylpropan-2-yl)pyrazine-2-carboxamide]: the IC50 in experiment [1] (setting [3]) and in experiment [2] (setting [4]) was less than 100 nM throughout.

For the compound `Cc1ccc(C(O)(C(N)=O)C(F)(F)F)cc1-c1cnc(N)c(C(=O)NC(C)(C)CO)n1` (stereo not drawn) [Example 13, 3-Amino-6-(5-(3-amino-1,1,1-trifluoro-2-hydroxy-3-oxopropan-2-yl)-2-methylphenyl)-N-(1-hydroxy-2-methylpropan-2-yl)pyrazine-2-carboxamide], the IC50 in experiment [1] (setting [3]) and in experiment [2] (setting [4]) was less than 100 nM each time. On to `Cc1ccc(C(O)(C(N)=O)C(F)(F)F)cc1-c1cnc(N)c(C(=O)Nc2ccnn2C)n1` (stereo not drawn) [Example 106, 3-amino-6-(5-(3-amino-1,1,1-trifluoro-2-hydroxy-3-oxopropan-2-yl)-2-methylphenyl)-N-(1-methyl-1H-pyrazol-5-yl)pyrazine-2-carboxamide trifluoroacetate], for which the IC50 (commonly the concentration at which inhibition is half-maximal) was less than 100 nM in experiment [1] (Table A3, scintillation proximity assay, recombinant human p110γ) and less than 100 nM in experiment [2] (Table A3, scintillation proximity assay, recombinant human PI3Kδ). On to `Cc1ccc(C(O)(C(N)=O)C(F)(F)F)cc1-c1cnc(N)c(N2CCN(c3ccccc3C#N)CC2)n1` (stereo not drawn) [Example 122, 2-(3-(5-amino-6-(4-(2-cyanophcnyl)piperazin-1-yl)pyrazin-2-yl)-4-methylphenyl)-3,3,3-trifluoro-2-hydroxypropanamide trifluoroacetate], for which the IC50 in experiment [1] (setting [5]) and in experiment [2] (setting [6]) was less than 100 nM each time. With `Cc1ccc(C(O)(C(N)=O)C(F)(F)F)cc1-c1cnc(N)c(C(=O)NCC(O)C(F)(F)F)n1` (single isomer, unassigned) [Example 43B, 3-amino-6-(5-(3-amino-1,1,1-trifluoro-2-hydroxy-3-oxopropan-2-yl)-2-methylphenyl)-N-(3,3,3-trifluoro-2-hydroxypropyl)pyrazine-2-carboxamide], the IC50 in experiment [1] (setting [3]) and in experiment [2] (setting [4]) was less than 100 nM throughout.

Consider `Cc1ccc(C(O)(C(N)=O)C(F)(F)F)cc1-c1cnc(N)c(C(=O)NCC(F)(F)F)n1` (stereo not drawn) [Example 38, 3-Amino-6-(5-(3-amino-1,1,1-trifluoro-2-hydroxy-3-oxopropan-2-yl)-2-methylphenyl)-N-(2,2,2-trifluoroethyl)pyrazine-2-carboxamide trifluoroacetate], for which the IC50 in experiment [1] (setting [3]) and in experiment [2] (setting [4]) was less than 100 nM throughout. As for `COC(C)(C)CNC(=O)c1nc(-c2cc(C(O)(C(N)=O)C(F)(F)F)ccc2C)cnc1N` (stereo not drawn) [Example 21, 3-amino-6-(5-(3-amino-1,1,1-trifluoro-2-hydroxy-3-oxopropan-2-yl)-2-methylphenyl)-N-(2-methoxy-2-methylpropyl)pyrazine-2-carboxamide trifluoroacetate], the IC50 in experiment [1] (setting [3]) and in experiment [2] (setting [4]) was less than 100 nM in each case. Regarding `Cc1ccc(C(O)(C(N)=O)C(F)F)cc1-c1cnc(N)c(C(=O)NCC2(C#N)CC2)n1` (stereo not drawn) [Example 33, 3-amino-6-(5-(1-amino-3,3-difluoro-2-hydroxy-1-oxopropan-2-yl)-2-methylphenyl)-N-((1-cyanocyclopropyl)methyl)pyrazine-2-carboxamide], the IC50 in experiment [1] (setting [3]) and in experiment [2] (setting [4]) was less than 100 nM throughout. On to `Cc1ccc(C(O)(C(N)=O)C(F)(F)F)cc1-c1cnc(N)c(C(=O)NC23CC(C#N)(C2)C3)n1` (stereo not drawn) [Example 23, 3-amino-6-(5-(3-amino-1,1,1-trifluoro-2-hydroxy-3-oxopropan-2-yl)-2-methylphenyl)-N-(3-cyanobicyclo[1.1.1]pentan-1-yl)pyrazine-2-carboxamide trifluoroacetate], for which the IC50 in experiment [1] (setting [3]) and in experiment [2] (setting [4]) was less than 100 nM throughout. For `Cc1ccc(C(O)(C(N)=O)C(F)(F)F)cc1-c1cnc(N)c(C#Cc2cnn(C)c2)n1` (stereo not drawn) [Example 54, 2-(3-(5-amino-6-((1-methyl-1H-pyrazol-4-yl)ethynyl)pyrazin-2-yl)-4-methylphenyl)-3,3,3-trifluoro-2-hydroxypropanamide], the IC50 in experiment [1] (setting [7]) and in experiment [2] (setting [8]) was less than 100 nM throughout. On to `Cc1ccc(C(O)(C(N)=O)C(F)(F)F)cc1-c1cnc(N)c(C(=O)N[C@H]2CCCOC2)n1` (stereo partly drawn) [Example 10, 3-amino-6-(5-(3-amino-1,1,1-trifluoro-2-hydroxy-3-oxopropan-2-yl)-2-methylphenyl)-N-((S)-tetrahydro-2H-pyran-3-yl)pyrazine-2-carboxamide trifluoroacetate], for which the concentration for half-maximal inhibition (IC50) in experiment [1] (setting [3]) and in experiment [2] (setting [4]) was less than 100 nM each time. Take `COc1cc(C#Cc2nc(-c3cc(C(O)(C(N)=O)C(F)(F)F)ccc3C)cnc2N)cc(OC)c1` (stereo not drawn) [Example 60, 2-(3-(5-amino-6-((3,5-dimethoxyphenyl)ethynyl)pyrazin-2-yl)-4-methylphenyl)-3,3,3-trifluoro-2-hydroxypropanamide]: the IC50 in experiment [1] (setting [7]) and in experiment [2] (setting [8]) was less than 100 nM in each case. In the case of `Cc1ccc(C(O)(C(N)=O)C(F)(F)F)cc1-c1cnc(N)c(C#CC(C)(O)C(C)C)n1` (stereo not drawn) [Example 62, 2-(3-(5-amino-6-(3-hydroxy-3,4-dimethylpent-1-ynyl)pyrazin-2-yl)-4-methylphenyl)-3,3,3-trifluoro-2-hydroxypropanamide], the IC50 in experiment [1] (setting [7]) and in experiment [2] (setting [8]) was less than 100 nM throughout. Turning to `Cc1ccc(C(O)(C(N)=O)C(F)(F)F)cc1-c1cnc(N)c(C#CC(C)(C)O)n1` (stereo not drawn) [Example 50, 2-(3-(5-amino-6-(3-hydroxy-3-methylbut-1-ynyl)pyrazin-2-yl)-4-methylphenyl)-3,3,3-trifluoro-2-hydroxypropanamide], the IC50 in experiment [1] (setting [7]) and in experiment [2] (setting [8]) was less than 100 nM throughout. On to `Cc1ccc(C(O)(C(N)=O)C(F)(F)F)cc1-c1cnc(N)c(N2CCN(c3ccccn3)CC2)n1` (stereo not drawn) [Example 117, 2-(3-(5-amino-6-(4-(pyridin-2-yl)piperazin-1-yl)pyrazin-2-yl)-4-methylphenyl)-3,3,3-trifluoro-2-hydroxypropanamide trifluoroacetate], for which the IC50 in experiment [1] and in experiment [2] was less than 100 nM throughout. For the compound `Cc1ccc(C(O)(C(N)=O)C(F)(F)F)cc1-c1cnc(N)c(N2CCN(c3cccc(C(F)(F)F)c3)CC2)n1` (stereo not drawn) [Example 121, 2-(3-(5-amino-6-(4-(3-(trifluoromethyl)phenyl)piperazin-1-yl)pyrazin-2-yl)-4-methylphenyl)-3,3,3-trifluoro-2-hydroxypropanamide trifluoroacetate], the IC50 in experiment [1] (setting [5]) was less than 100 nM; in experiment [2] (setting [6]), 100 to 500 nM. For the compound `Cc1ccc(C(O)(C(N)=O)C(F)(F)F)cc1-c1cnc(N)c(C2CC(C(=O)NC(C)C)C2)n1` (single isomer, unassigned) [Example 111, 3-(3-Amino-6-(5-(3-amino-1,1,1-trifluoro-2-hydroxy-3-oxopropan-2-yl)-2-methylphenyl)pyrazin-2-yl)-N-isopropylcyclobutane-1-carboxamide], the IC50 in experiment [2] (setting [6]) is 100 to 500 nM.
